Where two headings read alike, the source gives them in different places.
Assays:
Assay type in all cases: biochemical
[1] = target: T1, PI3Kβ (Homo sapiens, UniProt P42338); test: TR-FRET enzymatic activity assay, PI3Kβ
T1 construct: made in house

[2] = target: T2, PI3Kδ (Homo sapiens, UniProt O00329); test: TR-FRET enzymatic activity assay, PI3Kδ
T2 construct: made in house

[3] = target: T3, PI3Kγ (Homo sapiens, UniProt P48736); test: TR-FRET enzymatic activity assay, PI3Kγ; details: read-out: PI3Kγ IC50
T3 construct: made in house
T3 sequence (P48736 whole entry): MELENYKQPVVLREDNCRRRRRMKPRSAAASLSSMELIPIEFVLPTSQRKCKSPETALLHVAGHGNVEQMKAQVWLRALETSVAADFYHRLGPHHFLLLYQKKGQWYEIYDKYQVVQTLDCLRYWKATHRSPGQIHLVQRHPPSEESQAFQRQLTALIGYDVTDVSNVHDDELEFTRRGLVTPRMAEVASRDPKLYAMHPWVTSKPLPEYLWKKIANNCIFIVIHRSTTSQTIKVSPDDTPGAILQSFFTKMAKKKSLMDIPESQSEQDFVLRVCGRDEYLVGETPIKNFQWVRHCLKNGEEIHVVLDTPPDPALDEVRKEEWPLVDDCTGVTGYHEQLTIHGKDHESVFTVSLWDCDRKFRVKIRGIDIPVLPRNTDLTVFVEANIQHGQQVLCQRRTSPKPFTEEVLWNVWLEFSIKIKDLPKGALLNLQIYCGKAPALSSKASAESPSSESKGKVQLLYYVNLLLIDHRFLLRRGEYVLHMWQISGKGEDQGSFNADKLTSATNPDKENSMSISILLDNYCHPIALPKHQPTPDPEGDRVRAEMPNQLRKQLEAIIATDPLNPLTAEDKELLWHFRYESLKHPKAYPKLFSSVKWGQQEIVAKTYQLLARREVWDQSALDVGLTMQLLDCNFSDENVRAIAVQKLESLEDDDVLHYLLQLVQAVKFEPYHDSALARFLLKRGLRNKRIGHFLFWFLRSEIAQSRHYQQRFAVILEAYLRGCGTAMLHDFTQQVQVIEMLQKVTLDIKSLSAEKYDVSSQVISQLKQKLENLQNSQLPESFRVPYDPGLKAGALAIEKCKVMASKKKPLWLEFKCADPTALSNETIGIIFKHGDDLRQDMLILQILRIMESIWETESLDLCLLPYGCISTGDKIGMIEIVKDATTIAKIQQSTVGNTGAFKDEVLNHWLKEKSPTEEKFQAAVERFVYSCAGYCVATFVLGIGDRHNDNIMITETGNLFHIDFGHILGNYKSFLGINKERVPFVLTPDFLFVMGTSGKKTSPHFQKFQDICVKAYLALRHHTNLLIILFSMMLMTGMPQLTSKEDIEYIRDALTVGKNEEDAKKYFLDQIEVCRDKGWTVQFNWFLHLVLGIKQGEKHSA
Summary of the method: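 Activity measured by time-resolved FRET; each isoform tested in its own enzymatic reaction.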

[4] = Table 2, TR-FRET, 2x Km ATP, 30 minutes at 25° C.

T2 sequence (O00329 whole entry): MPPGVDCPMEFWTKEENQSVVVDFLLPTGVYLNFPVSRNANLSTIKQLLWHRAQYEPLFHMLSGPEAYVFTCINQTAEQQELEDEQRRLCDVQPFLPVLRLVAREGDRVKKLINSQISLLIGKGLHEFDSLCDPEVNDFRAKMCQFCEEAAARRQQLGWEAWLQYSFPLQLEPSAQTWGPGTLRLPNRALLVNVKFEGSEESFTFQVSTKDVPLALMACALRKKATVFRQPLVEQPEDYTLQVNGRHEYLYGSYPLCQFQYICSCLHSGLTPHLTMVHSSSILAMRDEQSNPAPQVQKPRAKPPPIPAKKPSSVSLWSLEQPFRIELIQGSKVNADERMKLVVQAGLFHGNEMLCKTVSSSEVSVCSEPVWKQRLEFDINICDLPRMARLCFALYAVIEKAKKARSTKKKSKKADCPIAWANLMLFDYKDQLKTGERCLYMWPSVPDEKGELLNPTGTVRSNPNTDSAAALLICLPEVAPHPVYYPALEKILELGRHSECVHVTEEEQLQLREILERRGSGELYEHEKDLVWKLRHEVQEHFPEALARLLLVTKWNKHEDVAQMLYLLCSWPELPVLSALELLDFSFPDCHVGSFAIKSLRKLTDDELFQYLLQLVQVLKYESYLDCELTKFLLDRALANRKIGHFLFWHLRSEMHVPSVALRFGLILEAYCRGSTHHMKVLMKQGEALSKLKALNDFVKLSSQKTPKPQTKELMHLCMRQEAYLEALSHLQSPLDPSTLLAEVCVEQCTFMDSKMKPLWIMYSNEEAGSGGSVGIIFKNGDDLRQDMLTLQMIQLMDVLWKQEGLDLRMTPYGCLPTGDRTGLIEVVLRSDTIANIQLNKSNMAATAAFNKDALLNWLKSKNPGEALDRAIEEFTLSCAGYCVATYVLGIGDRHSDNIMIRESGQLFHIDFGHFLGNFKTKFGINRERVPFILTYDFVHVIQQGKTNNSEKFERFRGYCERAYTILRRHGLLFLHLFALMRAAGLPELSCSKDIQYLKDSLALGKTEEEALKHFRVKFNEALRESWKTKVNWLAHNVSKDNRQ
T2 sequence (P27986 whole entry partner): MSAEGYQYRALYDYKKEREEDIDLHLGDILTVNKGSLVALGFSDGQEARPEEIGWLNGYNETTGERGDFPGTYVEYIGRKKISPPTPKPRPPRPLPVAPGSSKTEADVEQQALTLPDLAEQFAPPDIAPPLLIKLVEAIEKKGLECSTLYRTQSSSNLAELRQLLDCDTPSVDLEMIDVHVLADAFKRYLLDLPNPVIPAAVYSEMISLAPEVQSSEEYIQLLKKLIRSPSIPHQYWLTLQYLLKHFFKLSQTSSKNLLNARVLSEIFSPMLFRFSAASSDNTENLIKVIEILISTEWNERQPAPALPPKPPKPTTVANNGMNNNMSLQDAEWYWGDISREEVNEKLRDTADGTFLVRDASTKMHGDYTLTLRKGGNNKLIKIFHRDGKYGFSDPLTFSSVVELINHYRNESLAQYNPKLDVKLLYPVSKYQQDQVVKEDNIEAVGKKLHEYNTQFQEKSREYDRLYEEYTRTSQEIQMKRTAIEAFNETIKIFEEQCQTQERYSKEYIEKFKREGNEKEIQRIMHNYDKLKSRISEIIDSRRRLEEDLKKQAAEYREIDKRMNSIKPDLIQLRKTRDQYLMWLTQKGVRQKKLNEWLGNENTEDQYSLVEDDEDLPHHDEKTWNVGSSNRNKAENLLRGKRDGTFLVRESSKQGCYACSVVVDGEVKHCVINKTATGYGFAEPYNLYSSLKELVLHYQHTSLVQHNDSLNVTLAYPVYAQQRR
T1 sequence (P42338 whole entry): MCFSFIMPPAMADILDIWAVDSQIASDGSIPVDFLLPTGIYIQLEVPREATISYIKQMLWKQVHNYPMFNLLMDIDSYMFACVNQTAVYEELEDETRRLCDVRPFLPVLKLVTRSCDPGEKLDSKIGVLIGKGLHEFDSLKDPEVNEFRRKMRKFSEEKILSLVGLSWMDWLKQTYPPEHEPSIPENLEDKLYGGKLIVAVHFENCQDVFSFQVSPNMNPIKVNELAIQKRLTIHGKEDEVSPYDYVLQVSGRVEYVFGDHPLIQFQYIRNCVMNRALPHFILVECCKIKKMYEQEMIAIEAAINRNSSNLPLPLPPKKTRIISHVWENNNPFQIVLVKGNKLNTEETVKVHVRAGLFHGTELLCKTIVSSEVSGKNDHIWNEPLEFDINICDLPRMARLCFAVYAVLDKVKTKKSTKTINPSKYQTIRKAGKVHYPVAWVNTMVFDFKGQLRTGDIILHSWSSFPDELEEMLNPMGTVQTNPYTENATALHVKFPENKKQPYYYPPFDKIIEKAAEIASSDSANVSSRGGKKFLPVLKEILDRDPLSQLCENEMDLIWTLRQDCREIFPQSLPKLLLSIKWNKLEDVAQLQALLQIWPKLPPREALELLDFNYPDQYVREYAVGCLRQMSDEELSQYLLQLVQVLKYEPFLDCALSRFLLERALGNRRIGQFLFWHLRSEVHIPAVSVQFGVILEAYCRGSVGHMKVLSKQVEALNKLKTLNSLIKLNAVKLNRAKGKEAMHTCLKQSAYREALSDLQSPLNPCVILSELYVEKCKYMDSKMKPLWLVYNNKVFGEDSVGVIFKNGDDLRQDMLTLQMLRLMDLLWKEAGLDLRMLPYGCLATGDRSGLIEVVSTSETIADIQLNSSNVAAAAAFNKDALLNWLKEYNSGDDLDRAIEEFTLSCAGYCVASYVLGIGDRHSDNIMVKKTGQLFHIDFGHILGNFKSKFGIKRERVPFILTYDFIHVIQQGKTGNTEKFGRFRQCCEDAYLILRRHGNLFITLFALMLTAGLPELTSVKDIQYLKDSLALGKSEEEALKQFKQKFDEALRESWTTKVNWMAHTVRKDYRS
T1 sequence (P27986 whole entry partner): as the sequence (P27986 whole entry partner) above

SMILES	IC50 [1, 4] [nM]	IC50 [2, 4] [nM]	IC50 [3] [nM]	IC50 ([1]; Table 2a, same assay) [nM]	IC50 ([2]; Table 2a, same assay) [nM]	IC50 ([3]; Table 2a, same assay) [nM]	IC50 [3, 4] [nM]
C[C@H](Nc1nc(Cl)nc2[nH]ncc12)c1nc2cccc(Cl)c2c(=O)n1-c1cc[nH]n1 [Compound 91, (S)-5-chloro-2-(1-((6-chloro-1H-pyrazolo[3,4-d]pyrimidin-4-yl)amino)ethyl)-3-(1H-pyrazol-3-yl)quinazolin-4(3H)-one]	3600	2400	> 10000	–	–	–	–
N#Cc1c(N)nc(N)nc1N[C@H](c1nc2c(C(F)(F)F)cccc2c(=O)n1-c1cc[nH]n1)C1CC1 [Compound 133, (S)-2,4-diamino-6-((cyclopropyl(4-oxo-3-(1H-pyrazol-3-yl)-8-(trifluoromethyl)-3,4-dihydroquinazolin-2-yl)methyl)amino)pyrimidine-5-carbonitrile]	–	–	–	2	3	474	–
Nc1nc(N)c(Cl)c(N[C@@H](c2ccccc2)c2nc3cccc(Cl)c3c(=O)n2-c2cc[nH]n2)n1 [Compound 109, (S)-5-chloro-2-(((2,6-diamino-5-chloropyrimidin-4-yl)amino)(phenyl)methyl)-3-(1H-pyrazol-3-yl)quinazolin-4(3h)-one]	25	9	–	–	–	–	4900
Nc1nc(N)c(Cl)c(N[C@H](c2nc3c(Cl)ccc(Cl)c3c(=O)n2-c2cc[nH]n2)C2CC2)n1 [Compound 71, (S)-5,8-dichloro-2-(cyclopropyl((2,6-diamino-5-chloropyrimidin-4-yl)amino)methyl)-3-(1H-pyrazol-3-yl)quinazolin-4(3H)-one]	38	13	> 10000	–	–	–	–
C[C@H](Nc1nc(N)nc(N)c1Cl)c1nc2c(F)ccc(Cl)c2c(=O)n1-c1cn[nH]c1 [Compound 159, (S)-5-chloro-2-(1-((2,6-diamino-5-chloropyrimidin-4-yl)amino)ethyl)-8-fluoro-3-(1H-pyrazol-4-yl)quinazolin-4(3H)-one]	–	–	–	22	3	1600	–
CC[C@H](NC(=O)c1nccnc1N)c1nc2c(Cl)ccc(Cl)c2c(=O)n1-c1cc[nH]n1 [Compound 118, (S)-3-amino-N-(1-(5,8-dichloro-4-oxo-3-(1H-pyrazol-3-yl)-3,4-dihydroquinazolin-2-yl)propyl)pyrazine-2-carboxamide]	510	260	> 10000	–	–	–	–
C[C@H](Nc1ncnc(N)c1C#N)c1nc2cccc(Cl)c2c(=O)n1-c1cc(C2CC2)[nH]n1 [Compound 5, (S)-4-amino-6-((1-(5-chloro-3-(5-cyclopropyl-1H-pyrazol-3-yl)-4-oxo-3,4-dihydroquinazolin-2-yl)ethyl)amino)pyrimidine-5-carbonitrile]	340	28	> 10000	–	–	–	–
C[C@H](Nc1nc(N)nc(N)c1Cl)c1nc2cccc(Cl)c2c(=O)n1-c1cc(N)[nH]n1 [Compound 199, (S)-3-(5-amino-1H-pyrazol-3-yl)-5-chloro-2-(1-((2,6-diamino-5-chloropyrimidin-4-yl)amino)ethyl)quinazolin-4(3H)-one]	–	–	–	7	16	5400	–
O=c1c2c(Cl)cccc2nc([C@H](CO)Nc2ncnc3scnc23)n1-c1cn[nH]c1 [Compound 50, (R)-5-chloro-2-(2-hydroxy-1-(thiazolo[5,4-d]pyrimidin-7-ylamino)ethyl)-3-(1H-pyrazol-4-yl)quinazolin-4(3H)-one]	47	7	–	–	–	–	1800
C[C@H](Nc1nc(N)nc(N)c1Cl)c1nc2cccc(Cl)c2c(=O)n1-c1cn[nH]c1 [Compound 157, (S)-5-chloro-2-(1-((2,6-diamino-5-chloropyrimidin-4-yl)amino)ethyl)-3-(1H-pyrazol-4-yl)quinazolin-4(3H)-one]	–	–	–	15	2	1200	–
C[C@H](Nc1ncnn2ccnc12)c1nc2cccc(Cl)c2c(=O)n1-c1ccc[nH]1 [Compound 291, (S)-5-chloro-2-(1-(imidazo[2,1-f][1,2,4]triazin-4-ylamino)ethyl)-3-(1H-pyrrol-2-yl)quinazolin-4(3H)-one]	–	–	–	140	1	170	–
C[C@H](Nc1nc(N)nc(N)c1Cl)c1nc2ccc(F)c(Cl)c2c(=O)n1-c1cc[nH]n1 [Compound 259, (S)-5-chloro-2-(1-((2,6-diamino-5-chloropyrimidin-4-yl)amino)ethyl)-6-fluoro-3-(1H-pyrazol-3-yl)quinazolin-4(3H)-one]	–	–	–	21	6	3500	–
CC[C@H](Nc1nc(F)nc2[nH]cnc12)c1nc2c(Cl)ccc(Cl)c2c(=O)n1-c1cc[nH]n1 [Compound 53, (S)-5,8-dichloro-2-(1-((2-fluoro-9H-purin-6-yl)amino)propyl)-3-(1H-pyrazol-3-yl)quinazolin-4(3H)-one]	76	13	> 10000	–	–	–	–
CC[C@H](Nc1ncnc2[nH]cnc12)c1nc2c(Cl)ccc(Cl)c2c(=O)n1-c1cc[nH]n1 [Compound 52, (S)-2-(1-((9H-purin-6-yl)amino)propyl)-5,8-dichloro-3-(1H-pyrazol-3-yl)quinazolin-4(3H)-one]	70	6	> 10000	–	–	–	–
C[C@H](Nc1nc(N)nc(N)c1Cl)c1nc2cccc(Cl)c2c(=O)n1-c1cc(F)[nH]n1 [Compound 155, (S)-5-chloro-2-(1-((2,6-diamino-5-chloropyrimidin-4-yl)amino)ethyl)-3-(5-fluoro-1H-pyrazol-3-yl)quinazolin-4(3H)-one]	–	–	–	43	10	500	–
C[C@H](Nc1nc(N)nc(N)c1Cl)c1nc2ccc(F)c(Cl)c2c(=O)n1-c1cn[nH]c1 [Compound 263, (S)-5-chloro-2-(1-((2,6-diamino-5-chloropyrimidin-4-yl)amino)ethyl)-6-fluoro-3-(1H-pyrazol-4-yl)quinazolin-4(3H)-one]	–	–	–	190	20	1200	–

Further lines, results first:

IC50 [1, 4] [nM]	IC50 [2, 4] [nM]	IC50 [3] [nM]	IC50 ([1]; Table 2a, same assay) [nM]	IC50 ([2]; Table 2a, same assay) [nM]	IC50 ([3]; Table 2a, same assay) [nM]	IC50 [3, 4] [nM]	SMILES
–	–	–	3	4	2700	–	N#Cc1c(N)nc(N)nc1N[C@H](c1nc2cc(F)cc(Cl)c2c(=O)n1-c1cc[nH]n1)C1CC1 [Compound 239, (S)-2,4-diamino-6-(((5-chloro-7-fluoro-4-oxo-3-(1H-pyrazol-3-yl)-3,4-dihydroquinazolin-2-yl)(cyclopropyl)methyl)amino)pyrimidine-5-carbonitrile]
–	–	–	37	5	6100	–	Nc1nc(N)c(Cl)c(N[C@H](c2nc3c(F)cc(F)cc3c(=O)n2-c2cc[nH]n2)C2CC2)n1 [Compound 162, (S)-2-(cyclopropyl((2,6-diamino-5-chloropyrimidin-4-yl)amino)methyl)-6,8-difluoro-3-(1H-pyrazol-3-yl)quinazolin-4(3H)-one]
–	–	–	31	8	960	–	Cc1c[nH]nc1-n1c([C@@H](Nc2nc(N)nc(C)c2C#N)C2CC2)nc2cccc(Cl)c2c1=O [Compound 244, (S)-2-amino-4-(((5-chloro-3-(4-methyl-1H-pyrazol-3-yl)-4-oxo-3,4-dihydroquinazolin-2-yl)(cyclopropyl)methyl)amino)-6-methylpyrimidine-5-carbonitrile]
–	–	–	3	0.4	40	–	Cc1n[nH]cc1-n1c([C@H](C)Nc2nc(N)nc(N)c2C#N)nc2cccc(Cl)c2c1=O [Compound 216, (S)-2,4-diamino-6-((1-(5-chloro-3-(3-methyl-1H-pyrazol-4-yl)-4-oxo-3,4-dihydroquinazolin-2-yl)ethyl)amino)pyrimidine-5-carbonitrile]
–	–	–	13	12	6100	–	C[C@H](Nc1nc(N)nc(N)c1C#N)c1nc2c(F)c(F)ccc2c(=O)n1-c1cc[nH]n1 [Compound 231, (S)-2,4-diamino-6-((1-(7,8-difluoro-4-oxo-3-(1H-pyrazol-3-yl)-3,4-dihydroquinazolin-2-yl)ethyl)amino)pyrimidine-5-carbonitrile]
–	–	–	83	16	1800	–	C[C@H](Nc1nc(N)nc(N)c1Cl)c1nc2cccc(C(F)(F)F)c2c(=O)n1-c1cn[nH]c1 [Compound 209, (S)-2-(1-((2,6-diamino-5-chloropyrimidin-4-yl)amino)ethyl)-3-(1H-pyrazol-4-yl)-5-(trifluoromethyl)quinazolin-4(3H)-one]
–	–	–	4	1	320	–	CCC[C@H](Nc1nc(N)nc(N)c1C#N)c1nc2cccc(Cl)c2c(=O)n1-c1cc[nH]n1 [Compound 253, (S)-2,4-diamino-6-((1-(5-chloro-4-oxo-3-(1H-pyrazol-3-yl)-3,4-dihydroquinazolin-2-yl)butyl)amino)pyrimidine-5-carbonitrile]
–	–	–	23	20	2200	–	N#Cc1c(N[C@H](c2nc3c(F)ccc(Cl)c3c(=O)n2-c2cc[nH]n2)C2CC2)nc(N)nc1C(F)F [Compound 194, (S)-2-amino-4-(((5-chloro-8-fluoro-4-oxo-3-(1H-pyrazol-3-yl)-3,4-dihydroquinazolin-2-yl)(cyclopropyl)methyl)amino)-6-(difluoromethyl)pyrimidine-5-carbonitrile]
–	–	–	2	0.6	240	–	N#Cc1c(N)nc(N)nc1N[C@H](c1nc2cccc(C(F)F)c2c(=O)n1-c1cc[nH]n1)C1CC1 [Compound 214, (S)-2,4-diamino-6-((cyclopropyl(5-(difluoromethyl)-4-oxo-3-(1H-pyrazol-3-yl)-3,4-dihydroquinazolin-2-yl)methyl)amino)pyrimidine-5-carbonitrile]
–	–	–	4	6	370	–	CC[C@H](Nc1nc(N)nc(N)c1C#N)c1nc2cccc(C3CC3)c2c(=O)n1-c1cc[nH]n1 [Compound 245, (S)-2,4-diamino-6-((1-(5-cyclopropyl-4-oxo-3-(1H-pyrazol-3-yl)-3,4-dihydroquinazolin-2-yl)propyl)amino)pyrimidine-5-carbonitrile]

Source: patent US10308639B2, “Phosphatidylinositol 3-kinase inhibitors” (Gilead Sciences, Inc., priority 2014, dated 2019)
